We go through eight cell lines from the supplement of paper PMC10307832.

Holding throughout (assay): relative viability (nuclei count vs DMSO), 5 days (fraction); higher = more cells survive
Compound in experiment [1]: C1COCCN1C2=NC(=NC3=C2OC4=C3C=CC=N4)C5=CC(=CC=C5)NC(=O)C6=CN=C(C=C6)N + O=C(c1cc(Cc2n[nH]c(=O)c3ccccc23)ccc1F)N1CCN(C(=O)C2CC2)CC1 [Olaparib] (partner 8 µM)
Put shortly: (§1)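 After 5 days of treatment, lung cancer cells in 1536-well plates were fixed and stained in a single step (final 0.05% Triton X-100, 1% formaldehyde, 1 ug/ml Hoechst) and their nuclei counted on 4× images. Treatment had been applied by pin tool the day after seeding as one drug alone or as a fixed anchor-drug dose with five library-drug doses (not always all listed) in √10 steps. Relative viability is the nuclei count of treated wells divided by that of vehicle wells, and values are medians of duplicate plates.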

Compound in experiment [2]: Nc1ccccc1NC(=O)c1ccc(CNC(=O)OCc2cccnc2)cc1 [Entinostat] + Nc1ncn([C@H]2C[C@H](O)[C@@H](CO)O2)c(=O)n1 [Decitabine] (partner 2 µM)
Put shortly:
as §1

Compound in experiment [3]: CN1CCC(CNc2ccc3ncc(-c4cccc(OC(F)(F)F)c4)n3n2)CC1 [SGI-1776] + COc1cc2c(Oc3ccc(NC(=O)C4(C(=O)Nc5ccc(F)cc5)CC4)cc3F)ccnc2cc1OCCCN1CCOCC1 [Foretinib] (partner 0.25 µM)
Put shortly: as §1

Compound in experiment [4]: CN1CCC(CNc2ccc3ncc(-c4cccc(OC(F)(F)F)c4)n3n2)CC1 [SGI-1776] + CC(=O)c1c(C)c2cnc(Nc3ccc(N4CCNCC4)cn3)nc2n(C2CCCC2)c1=O [Palbociclib] (partner 0.5 µM)
Put shortly: as §1

Regarding NCI-H358, the relative viability in experiment [1] (first compound 0.02 µM) was determined as 0.7; in experiment [1] (first compound 0.06325 µM), 0.662; in experiment [1] (first compound 0.2 µM), 0.552; in experiment [1] (first compound 0.6325 µM), 0.579; in experiment [1] (first compound 2 µM) it was 0.372; in experiment [2] (first compound 0.02 µM) it was 0.188. Further, the relative viability in experiment [2] (first compound 0.06325 µM) amounted to 0.201; in experiment [2] (first compound 0.2 µM), 0.173; in experiment [2] (first compound 0.6325 µM) it was 0.153; in experiment [2] (first compound 2 µM), 0.137; in experiment [3] (first compound 0.08 µM), 0.698; in experiment [3] (first compound 0.8 µM), 0.553. The relative viability was 0.467 in experiment [3] (first compound 2.53 µM); 0.198 in experiment [3] (first compound 8 µM); 0.112 in experiment [4] (first compound 0.08 µM); 0.141 in experiment [4] (first compound 0.8 µM); 0.129 in experiment [4] (first compound 2.53 µM); 0.113 in experiment [4] (first compound 8 µM).

Turning to NCI-H441, the relative viability stood at 0.451 in experiment [1] (first compound 0.02 µM); 0.553 in experiment [1] (first compound 0.06325 µM); 0.686 in experiment [1] (first compound 0.2 µM); 0.536 in experiment [1] (first compound 0.6325 µM); 0.414 in experiment [1] (first compound 2 µM); 0.237 in experiment [2] (first compound 0.02 µM). In addition, the relative viability in experiment [2] (first compound 0.06325 µM) came out at 0.284; in experiment [2] (first compound 0.2 µM) it was 0.264; in experiment [2] (first compound 0.6325 µM), 0.138; in experiment [2] (first compound 2 µM) it was 0.132; in experiment [3] (first compound 0.08 µM) it was 0.992; in experiment [3] (first compound 0.8 µM), 0.925. In addition, the relative viability in experiment [3] (first compound 2.53 µM) was found to be 1.17; in experiment [3] (first compound 8 µM), 0.728; in experiment [4] (first compound 0.08 µM) it was 0.204; in experiment [4] (first compound 0.8 µM), 0.219; in experiment [4] (first compound 2.53 µM), 0.235; in experiment [4] (first compound 8 µM), 0.164.

Regarding NCI-H460, the relative viability in experiment [1] (first compound 0.02 µM) is 0.578; in experiment [1] (first compound 0.06325 µM), 0.537; in experiment [1] (first compound 0.2 µM) it was 0.376; in experiment [1] (first compound 0.6325 µM) it was 0.413; in experiment [1] (first compound 2 µM), 0.182; in experiment [2] (first compound 0.02 µM) it was 0.438. The relative viability in experiment [2] (first compound 0.06325 µM) stood at 0.372; in experiment [2] (first compound 0.2 µM) it was 0.203; in experiment [2] (first compound 0.6325 µM), 0.0553; in experiment [2] (first compound 2 µM), 0.0422; in experiment [3] (first compound 0.08 µM), 1.01; in experiment [3] (first compound 0.8 µM), 0.947. Further, the relative viability in experiment [3] (first compound 2.53 µM) turned out to be 0.998; in experiment [3] (first compound 8 µM) it was 0.716; in experiment [4] (first compound 0.08 µM), 0.243; in experiment [4] (first compound 0.8 µM), 0.133; in experiment [4] (first compound 2.53 µM) it was 0.121; in experiment [4] (first compound 8 µM) it was 0.151.

NCI-H520: the relative viability stood at 0.383 in experiment [1] (first compound 0.02 µM); 0.352 in experiment [1] (first compound 0.06325 µM); 0.332 in experiment [1] (first compound 0.2 µM); 0.328 in experiment [1] (first compound 0.6325 µM); 0.292 in experiment [1] (first compound 2 µM); 0.571 in experiment [2] (first compound 0.02 µM). Moreover, the relative viability in experiment [2] (first compound 0.06325 µM) was found to be 0.464; in experiment [2] (first compound 0.2 µM) it was 0.482; in experiment [2] (first compound 0.6325 µM), 0.385; in experiment [2] (first compound 2 µM), 0.35; in experiment [3] (first compound 0.08 µM), 0.826; in experiment [3] (first compound 0.8 µM) it was 0.895. Moreover, the relative viability in experiment [3] (first compound 2.53 µM) was found to be 0.783; in experiment [3] (first compound 8 µM) it was 0.51; in experiment [4] (first compound 0.08 µM) it was 0.267; in experiment [4] (first compound 0.8 µM), 0.219; in experiment [4] (first compound 2.53 µM), 0.191; in experiment [4] (first compound 8 µM), 0.16.

With NCI-H647, the relative viability in experiment [1] (first compound 0.02 µM) is 0.684; in experiment [1] (first compound 0.06325 µM) it was 0.69; in experiment [1] (first compound 0.2 µM), 0.573; in experiment [1] (first compound 0.6325 µM), 0.606; in experiment [1] (first compound 2 µM) it was 0.256; in experiment [2] (first compound 0.02 µM) it was 0.382. Also, the relative viability is 0.256 in experiment [2] (first compound 0.06325 µM); 0.258 in experiment [2] (first compound 0.2 µM); 0.166 in experiment [2] (first compound 0.6325 µM); 0.166 in experiment [2] (first compound 2 µM); 1.22 in experiment [3] (first compound 0.08 µM); 1.24 in experiment [3] (first compound 0.8 µM). In addition, the relative viability in experiment [3] (first compound 2.53 µM) stood at 1.18; in experiment [3] (first compound 8 µM), 1.15; in experiment [4] (first compound 0.08 µM) it was 0.506; in experiment [4] (first compound 0.8 µM), 0.367; in experiment [4] (first compound 2.53 µM) it was 0.319; in experiment [4] (first compound 8 µM), 0.258.

Consider NCI-H650, for which the relative viability in experiment [1] (first compound 0.02 µM) turned out to be 0.403; in experiment [1] (first compound 0.06325 µM) it was 0.405; in experiment [1] (first compound 0.2 µM), 0.379; in experiment [1] (first compound 0.6325 µM) it was 0.371; in experiment [1] (first compound 2 µM) it was 0.408; in experiment [2] (first compound 0.02 µM) it was 0.312. Moreover, the relative viability in experiment [2] (first compound 0.06325 µM) is 0.336; in experiment [2] (first compound 0.2 µM) it was 0.252; in experiment [2] (first compound 0.6325 µM) it was 0.278; in experiment [2] (first compound 2 µM), 0.226; in experiment [3] (first compound 0.08 µM) it was 1.09; in experiment [3] (first compound 0.8 µM), 1.03. Further, the relative viability in experiment [3] (first compound 2.53 µM) was found to be 1.02; in experiment [3] (first compound 8 µM), 0.936; in experiment [4] (first compound 0.08 µM), 0.39; in experiment [4] (first compound 0.8 µM) it was 0.349; in experiment [4] (first compound 2.53 µM), 0.312; in experiment [4] (first compound 8 µM) it was 0.33.

On to NCI-H661, for which the relative viability in experiment [1] (first compound 0.02 µM) came out at 0.789; in experiment [1] (first compound 0.06325 µM), 0.832; in experiment [1] (first compound 0.2 µM), 0.717; in experiment [1] (first compound 0.6325 µM), 0.876; in experiment [1] (first compound 2 µM), 0.426; in experiment [2] (first compound 0.02 µM), 0.58. Moreover, the relative viability is 0.549 in experiment [2] (first compound 0.06325 µM); 0.538 in experiment [2] (first compound 0.2 µM); 0.479 in experiment [2] (first compound 0.6325 µM); 0.356 in experiment [2] (first compound 2 µM); 1.03 in experiment [3] (first compound 0.08 µM); 1.04 in experiment [3] (first compound 0.8 µM). Besides, the relative viability in experiment [3] (first compound 2.53 µM) was 1.07; in experiment [3] (first compound 8 µM), 1.03; in experiment [4] (first compound 0.08 µM) it was 0.415; in experiment [4] (first compound 0.8 µM), 0.399; in experiment [4] (first compound 2.53 µM) it was 0.412; in experiment [4] (first compound 8 µM), 0.338.

Consider NCI-H727, for which the relative viability turned out to be 0.723 in experiment [1] (first compound 0.02 µM); 0.802 in experiment [1] (first compound 0.06325 µM); 0.746 in experiment [1] (first compound 0.2 µM); 0.605 in experiment [1] (first compound 0.6325 µM); 0.606 in experiment [1] (first compound 2 µM); 0.913 in experiment [2] (first compound 0.02 µM). For the same cell line, the relative viability in experiment [2] (first compound 0.06325 µM) amounted to 1.35; in experiment [2] (first compound 0.2 µM), 1.03; in experiment [2] (first compound 0.6325 µM), 0.853; in experiment [2] (first compound 2 µM), 0.681; in experiment [3] (first compound 0.08 µM), 0.988; in experiment [3] (first compound 0.8 µM), 0.971. Further, the relative viability was determined as 0.926 in experiment [3] (first compound 2.53 µM); 0.671 in experiment [3] (first compound 8 µM); 0.583 in experiment [4] (first compound 0.08 µM); 0.679 in experiment [4] (first compound 0.8 µM); 0.693 in experiment [4] (first compound 2.53 µM); 0.51 in experiment [4] (first compound 8 µM).
